# Experimental data published in ChEMBL document CHEMBL1201862, “PubChem BioAssay data set” (2004).
# The source made the active and inactive calls.
# Tests used:
# [1] = NIH-3T3 fibroblast cytotoxicity, dose response, cytotoxicity control, cell-based, fluorescence, Alamar Blue, secondary assay (AID 2327); format: functional;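 further: NIH-3T3 mouse fibroblasts cultured with fluconazole at 8 µg/mL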
# [2] = fluconazole-exposed Candida albicans growth modulators – fluorescence, retest, confirmation (AID 2467); format: functional, cell-based
# [3] = biological target: Albumin (Bos taurus, UniProt P02769); experiment: Counterscreen for inhibitors of T-cell receptor (TCR)-CD3 interaction: Fluorescence-based biochemical high throughput dose response assay to identify inhibitors of T-cell receptor (TCR)-CD3 interaction using a TAMRA-labeled BSA probe.; format: functional
# [4] = inhibitors of non-replicating M. tuberculosis, dose response, luciferase, dry powder (AID 651619); format: functional; settings: Mycobacterium tuberculosis
# [5] = HeLa cell viability loss – plate reader, dry powder, cytotoxicity control, dose response (AID 651946); format: functional, cell-based
# [6] = inhibitors of non-replicating M. tuberculosis, dose response, luciferase, dry powder (AID 651620); format: functional; settings: Mycobacterium tuberculosis
# [7] = growth inhibition of replicating M. tuberculosis, dose response, counter-screen, dry powder, IC90 (AID 651617); format: functional; settings: Mycobacterium tuberculosis
# [8] = biological target: Paired box protein Pax-8 (Homo sapiens, UniProt Q06710); experiment: PAX8 transcriptional activity inhibition in RMG-I – RMG-I cells, luciferase, cherry-pick, dose response (AID 687027); format: functional, cell-based;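 further: luciferase reporter driven by Pax8 target thyroperoxidase promoter measured by SteadyGlo luminescence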
# [9] = toxicity toward immortalized ovarian surface epithelium – cell-based, plate reader, dry powder samples, cytotoxicity control for PAX8 inhibitor project, dose response (AID 743045); format: functional
# [10] = A2780 cell killing – plate reader, dry powder samples, cytotoxicity control, dose response (AID 743046); format: functional, cell-based
# [11] = OVCAR-3 cell viability loss – plate reader, dry powder samples, PAX8 inhibitor project, dose response (AID 743044); format: functional, cell-based
# [12] = OVCAR8 cell viability loss – plate reader, dry powder samples, PAX8 project, dose response (AID 743197); format: functional, cell-based; settings: OVCAR-8
# [13] = general mammalian cell viability loss – inhibitor set, cherry-pick, set 2, cytotoxicity control for miR-122 modulator project, dose response (AID 720697); format: functional, cell-based
# [14] = biological target: Beta-lactamase (Salmonella choleraesuis (strain SC-B67), UniProt Q5J463); experiment: Epi-absorbance-based counterscreen for selective VIM-2 inhibitors: dose response biochemical high throughput screening assay to identify inhibitors of TEM-1 serine-beta-lactamase.
# [15] = biological target: T1, Beta-lactamase (Pseudomonas aeruginosa, UniProt Q79MP6); experiment: inhibition of IMP-1 beta-lactamase activity – biochemical, epi-absorbance, selectivity assay for VIM-2 inhibitor project, dose response (AID 1920)
# [16] = biological target: T1, Beta-lactamase; experiment: […] counterscreen for selective VIM-2 inhibitors: dose response biochemical high throughput screening assay to identify inhibitors of IMP-1 metallo-beta-lactamase.
# [17] = biological target: T2, Corticotropin-releasing factor receptor 2/Corticotropin-releasing factor-binding protein (Homo sapiens, UniProt P24387+Q13324); experiment: Dose Response confirmation of uHTS hits for small molecule antagonists of the CRF-binding protein and CRF-R2 receptor complex.; format: functional; settings: read-out: IC50_Mean
# T2 sequence (Q13324 whole entry): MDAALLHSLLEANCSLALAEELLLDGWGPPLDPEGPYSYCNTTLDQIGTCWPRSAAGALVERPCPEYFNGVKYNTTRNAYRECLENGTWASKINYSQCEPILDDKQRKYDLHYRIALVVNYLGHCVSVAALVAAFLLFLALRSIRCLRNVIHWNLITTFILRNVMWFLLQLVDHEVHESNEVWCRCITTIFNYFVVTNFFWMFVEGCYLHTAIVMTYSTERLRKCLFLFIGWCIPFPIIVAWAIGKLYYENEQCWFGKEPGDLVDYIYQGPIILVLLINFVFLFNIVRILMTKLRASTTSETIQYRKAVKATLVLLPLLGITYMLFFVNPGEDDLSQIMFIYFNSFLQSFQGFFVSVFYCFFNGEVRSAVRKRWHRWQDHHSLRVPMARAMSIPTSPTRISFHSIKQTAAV
# T2 sequence (P24387 whole entry): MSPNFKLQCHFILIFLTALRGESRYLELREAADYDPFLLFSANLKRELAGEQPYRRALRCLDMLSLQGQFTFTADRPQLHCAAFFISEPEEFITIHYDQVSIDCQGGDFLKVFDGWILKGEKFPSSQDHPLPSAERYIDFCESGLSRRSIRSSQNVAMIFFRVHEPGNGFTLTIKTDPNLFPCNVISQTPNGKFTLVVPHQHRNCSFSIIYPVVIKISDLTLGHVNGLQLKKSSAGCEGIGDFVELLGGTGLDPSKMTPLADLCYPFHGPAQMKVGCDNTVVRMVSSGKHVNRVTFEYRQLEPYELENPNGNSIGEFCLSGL
# [18] = biological target: T2, Corticotropin-releasing factor receptor 2/Corticotropin-releasing factor-binding protein; experiment: activators of CRF receptor 2 with binding protein – uHTS hits, confirmation (AID 602473); format: functional; settings: read-out: EC50_Mean
# [19] = blockers of CRF-binding protein–CRF-R2 complex – cell-based, uHTS hits, 384-well, dose response (AID 651639); format: functional, Homo sapiens; settings: read-out: IC50_Mean
# [20] = Luminescence Cell-Based Dose Confirmation HTS to Identify Activators of 5'UTR Stem-Loop Driven Alpha-Synuclein mRNA Translation in H4 Neuroglioblastoma Cells. [Related pubchem assays: 1829 (Project Summary), 1814 (Primary HTS)]; format: functional
# [21] = Luminescence Cell-Based Dose Response HTS to Identify Activators of Luciferase Translation or Activity in H4 […] Cells. [Related pubchem assays: 1829 (Project Summary), 1814 (Primary HTS)]; format: functional
# [22] = tested on: H4; experiment: Luminescence Cell-Based Dose Response HTS to Identify Activators of 5'UTR Stem-Loop Driven Prion Protein mRNA Translation in H4 Neuroglioblastoma Cells. [Related pubchem assays: 1829 (Project Summary), 1814 (Primary HTS)]; format: functional; settings: Homo sapiens
# [23] = toxicity toward HEK293 cells – cell-based, dry powder samples, cytotoxicity control, dose response (AID 720567); format: functional
# [24] = viability loss in HepG2 hepatoma cells – cell-based, cherry-picks, set 5, cytotoxicity control, dose response (AID 1053118); format: functional
# [25] = viability loss in HEK293 kidney cells – cell-based, cherry-picks, set 5, cytotoxicity control, dose response (AID 1053117); format: functional
# [26] = blockers of FN fibrillogenesis by fibroblasts – AH1F cells, Alexa488-FN fluorescence, cherry-picks, dose response (AID 1035475); format: functional, cell-based
# [27] = Luminescence Cell-Based Dose Response to Identify Activators of 5'UTR Stem-Loop Driven Prion Protein mRNA Translation in H4-C Neuroglioblastoma Cells. [Related pubchem assays: 1829 (Project Summary), 1814 (Primary HTS)]; format: functional
# [28] = Luminescence Cell-Based Dose Response to Identify Activators of Luciferase Translation or Activity in H4-C Neuroglioblastoma Cells. [Related pubchem assays: 1829 (Project Summary), 1814 (Primary HTS)]; format: functional
# [29] = Luminescence Cell-Based Dose Confirmation to Identify Activators of 5'UTR Stem-Loop Driven Alpha-Synuclein mRNA Translation in H4 Neuroglioblastoma Cells. [Related pubchem assays: 1829 (Project Summary), 1814 (Primary HTS)]; format: functional
# [30] = biological target: T3, Cysteine protease ATG4B (Homo sapiens, UniProt Q9Y4P1); format: functional;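 further: Fluorescence-based dose-response confirmation assay measuring inhibition of ATG4B activity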
# T3 sequence (Q9Y4P1 whole entry): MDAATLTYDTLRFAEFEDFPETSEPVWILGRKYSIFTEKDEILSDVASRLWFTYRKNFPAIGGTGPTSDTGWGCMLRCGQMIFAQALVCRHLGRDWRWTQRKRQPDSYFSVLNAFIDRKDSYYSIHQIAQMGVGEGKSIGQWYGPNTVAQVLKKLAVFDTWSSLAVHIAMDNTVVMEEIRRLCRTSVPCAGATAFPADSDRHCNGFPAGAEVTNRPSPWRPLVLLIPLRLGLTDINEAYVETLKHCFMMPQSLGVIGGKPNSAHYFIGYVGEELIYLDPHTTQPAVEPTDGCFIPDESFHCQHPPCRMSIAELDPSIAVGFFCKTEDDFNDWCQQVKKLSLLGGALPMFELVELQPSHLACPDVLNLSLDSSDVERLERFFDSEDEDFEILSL
# [31] = biological target: Phospholipase A2 (Homo sapiens, UniProt P04054); format: functional;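 further: confirmatory dose-response counterscreen on phospholipase A2, testing hits that came from an ultra-high-throughput screen for ATG4B inhibitors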
# [32] = biological target: T4, Protein skinhead-1 (Caenorhabditis elegans, UniProt P34707); format: functional
# T4 sequence (P34707 whole entry): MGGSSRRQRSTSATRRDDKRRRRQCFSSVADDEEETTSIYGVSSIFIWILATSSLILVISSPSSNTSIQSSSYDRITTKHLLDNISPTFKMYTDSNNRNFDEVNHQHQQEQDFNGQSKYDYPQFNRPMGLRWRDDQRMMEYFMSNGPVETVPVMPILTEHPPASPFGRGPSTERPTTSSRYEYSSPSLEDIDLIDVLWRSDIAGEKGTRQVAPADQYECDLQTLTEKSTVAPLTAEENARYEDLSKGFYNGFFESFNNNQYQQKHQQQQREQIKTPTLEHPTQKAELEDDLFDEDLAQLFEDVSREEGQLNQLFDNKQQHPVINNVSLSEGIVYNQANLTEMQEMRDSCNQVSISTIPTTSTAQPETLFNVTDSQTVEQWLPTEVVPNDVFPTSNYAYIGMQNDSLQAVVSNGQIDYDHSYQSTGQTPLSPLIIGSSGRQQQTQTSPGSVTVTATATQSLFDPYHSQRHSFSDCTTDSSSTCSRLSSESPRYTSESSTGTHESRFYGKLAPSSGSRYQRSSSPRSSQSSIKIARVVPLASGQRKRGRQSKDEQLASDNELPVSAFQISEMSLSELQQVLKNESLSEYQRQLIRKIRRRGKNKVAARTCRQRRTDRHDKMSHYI
# [33] = biological target: Fructose-bisphosphate aldolase (Mycobacterium tuberculosis, UniProt P9WQA3); experiment: Fluorescence-based biochemical high throughput dose response assay for inhibitors of the fructose-bisphosphate aldolase (FBA) of M. tuberculosis.; format: functional
# [34] = biological target: Heat shock protein HSP 90-alpha (Homo sapiens, UniProt P07900); format: functional, organism-based
# [35] = ATP-based viability loss in HEK293T cells – cell-based, CellTiter-Glo luminescence, dry powder, set 2, cytotoxicity control, dose response (AID 720595); format: functional; settings: HEK293
# [36] = ATP-based viability loss in HeLa cells – cell-based, CellTiter-Glo luminescence, dry powder, set 2, cytotoxicity control, dose response (AID 720593); format: functional
# [37] = inhibition of Env-driven cell fusion – HIV entry, plate reader, dry powder, dose response (AID 687023); format: functional, cell-based
# [38] = biological target: Major prion protein (Homo sapiens, UniProt P04156); format: functional, cell-based
# [39] = cells
# [40] = IGROV1 cell killing – plate reader, dry powder samples, PAX8 inhibitor project, dose response (AID 743043); format: functional, cell-based; settings: IGROV-1
# [41] = tested on: A549; experiment: viability loss in A549 cells – cell-based, plate reader, cherry-pick samples, cytotoxicity control, dose response (AID 687028); format: functional; settings: Homo sapiens
structure (smiles),measurement,setting,value
COc1ccc(NC(=O)NNC(=O)c2cc3ccccc3cc2O)cc1,EC50,[1],> 160 µM (inactive)
same,EC50,[2],> 38 µM (not active)
same,IC50,[3],> 94.1 µM (inactive)
[O-][S+](Cc1ccccc1)c1nnc(-c2ccccc2)o1 (stereo not given),IC90,[4],1 µM (active)
same,AC50,[5],32.2 µM (active)
same,IC90,[6],1 µM (active)
same,IC90,[7],31 µM (active)
COc1ccc(-c2ccc3c(c2)[C@@H]2[C@@H](CCN2C(=O)NC2CCCCC2)[C@H](CO)N3C)cc1,AC50,[8],10.7 µM (active)
same,AC50,[9],46.8 µM (active)
same,AC50,[10],32.8 µM (active)
same,AC50,[11],49.5 µM (active)
same,AC50,[12],> 60 µM (inactive)
CCCNC(=O)Nc1ccc2c(c1)C(=O)N(C)[C@@H]1CC[C@@H](CC(=O)NCC3CCCCC3)O[C@@H]1CO2,AC50,[13],0.456 µM (active)
Oc1nc(SCc2nnc(S)n2-c2ccccc2)nc2sc3c(c12)CCC3,IC50,[14],> 59.6 µM (inactive)
same,IC50,[15],> 59.6 µM (inactive)
same,IC50,[16],> 59.6 µM (inactive)
same,IC50,[17],13.5 µM (active)
same,EC50,[18],> 53 µM (inactive)
same,IC50,[19],6.63 µM (active)
COC(=O)c1cn(C(=O)c2ccc(OC)cc2)c2ccccc12,EC50,[20],> 120 µM (not active)
same,EC50,[21],9.72 µM (active)
same,EC50,[22],> 120 µM (not active)
same,AC50,[23],> 30 µM (inactive)
C[C@H](CO)N1C[C@H](C)[C@H](CN(C)Cc2ccc(-c3ccccc3)cc2)Oc2ccc(NC(=O)CCCN(C)C)cc2C1=O,AC50,[24],11.8 µM (active)
same,AC50,[25],12.7 µM (active)
same,AC50,[26],30.8 µM (active)
COc1ccc2c(c1OC)C(=O)OC2Nc1nc(-c2ccc(-c3ccccc3)cc2)cs1 (stereo not given),EC50,[27],0.254 µM (active)
same,EC50,[21],< 0.1 µM (active)
same,EC50,[28],0.284 µM (active)
same,EC50,[29],0.396 µM (active)
same,IC50,[30],8.28 µM (active)
same,IC50,[31],17.1 µM (active)
same,IC50,[32],18.7 µM (active)
same,IC50,[33],6.08 µM (active)
O=C(CSc1ccc(-c2ccccn2)nn1)Nc1ccccc1,AC50,[34],35.3 µM (active)
same,AC50,[35],25.8 µM (active)
same,AC50,[36],> 52 µM (inactive)
CCOc1ccc(OCC)c(S(=O)(=O)NCc2ccncc2)c1,AC50,[37],> 70 µM (inactive)
Cc1cccc2c(=O)c(-c3ccc4c(c3)OCO4)c(NC(=O)c3ccco3)oc12,IC50,[38],9.57 µM (active)
same,IC50,[39],> 138 µM (inactive)
C[C@H]1CCCCO[C@H](CN(C)Cc2ccc(C(F)(F)F)cc2)[C@@H](C)CN([C@@H](C)CO)C(=O)c2cc(NC(=O)Cc3ccccc3)ccc2O1,AC50,[8],7.6 µM (active)
same,AC50,[11],29.7 µM (active)
same,AC50,[40],31.9 µM (active)
same,AC50,[12],53 µM (active)
C[C@]1(C(=O)NCCc2c[nH]c3ccccc23)C=C[C@@H](Cc2ccccc2)N1C(=O)c1ccccc1,AC50,[41],20.6 µM (active)
